Measurements reported in patent US20090196862A1, “High dosage Vitamin D” (priority 2008, published 2009).

What was measured:
[1] = Clinical observation of lipids, inflammatory levels and blood pressure on oral D3; assay type: in vivo, human; conditions: oral administration
Source text: The present inventor observed lipid effects (reduced triglycerides, a raise in the levels of HDL [“good cholesterol”] and a reduction in LDL particles [“bad cholesterol”]) from oral supplementation of an oil-based preparation of D3.

[2] = tested on: atherosclerotic plaque; assay: Coronary / atherosclerotic plaque by heart CT scan score in patients; assay type: in vivo, human; conditions: for effect on plaques (heart CT scan score): patients with coronary plaques
Description: In clinical practice with regard to plaque formation, the present inventor observed that blood serum levels of D3 of about 50 ng/mL provide sufficient effect. Below 50 ng/mL, there is an incremental effect, with a very small effect as low as 20 ng/mL, but a significant effect emerging at 40-45 ng/mL. By 50 ng/mL, there is a significant and often sufficient effect. About 50 ng/mL of 25-hydroxy-vitamin D [25(OH)D] in blood serum provides a reasonably strong effect against plaque buildup.

[3] = literature report; cited from earlier work

C=C1CC[C@H](O)C/C1=C/C=C1\CCC[C@]2(C)[C@@H]([C@H](C)CCCC(C)C)CC[C@@H]12 [D3, cholecalciferol]
blood pressure [1]: reductions
inflammatory levels [1]: reductions
blood serum level of D3 at which a significant effect emerges (plaque formation) ([2]; clinical practice): 40 to 45 ng/mL
blood serum level of D3 providing sufficient effect on plaque formation ([2]; clinical practice): about 50 ng/mL
blood serum level of D3 with a very small effect (plaque formation) ([2]; clinical practice): 20 ng/mL
effect on plaques (heart CT scan score) ([2]; listed as oral D3): positive effect
effect on plaques (heart CT scan score) ([2]; listed as vitamin D): decreased evidence of plaques

C=C1CC[C@H](O)C/C1=C/C=C1\CCC[C@]2(C)[C@@H]([C@H](C)/C=C/[C@H](C)C(C)C)CC[C@@H]12 [D2, ergocalciferol]
conversion of D2 to D3 in humans [3]: ≤ 70%
